Experimental data published in paper PMC9856672, “SGC-CAMKK2-1: A Chemical Probe for CAMKK2” (Cells, 2023).
Entries after “also recorded” stand apart in the source; their conditions may differ.

Key:
[1] = test system: panel of more than 400 wild-type human kinases; assay: DiscoverX KINOMEscan broad kinome profiling (panel of more than 400 wild-type human kinases), selectivity score S10; format: binding; details: KINOMEscan at 1 μM; number of wild type kinases with % control ≤10 / number tested
Experimental: Compounds were screened at Eurofins DiscoverX (Freemont, CA) at a single concentration of 1 μM using binding assays as described previously. Briefly, extracts containing DNA-tagged kinases are incubated with immobilized kinase inhibitors and the test compound (at 1 μM). Test compounds that displace the immobilized broad-spectrum inhibitors are detected by quantitative PCR. The results are expressed as the percentage of kinase bound to the bead compared to DMSO control (%control). […] The formula to calculate S10 depicted in Equation (1). (1) S10(1 μM)=number of wild type kinase with % control ≤10/number of wild type kinase tested
A series of furo [2,3-b]pyridines were generated with modifications off the core at the 3- and 5-positions. They were profiled in the CAMKK2 enzyme assay we have described and utilized previously. Briefly, the enzyme assay measures the ability of the compound to inhibit the transfer of a radiolabeled phosphate from ATP to a CAMKK2-specific peptide. […] 5 was then profiled in the DiscoverX KINOMEscan™ assay panel to provide a view of the overall kinome-wide selectivity (Supplemental S2). This assay platform evaluates compound affinity for a panel of more than 400 wild-type human kinases. The S10 (1 µM), a calculated score that is reflective of broad kinome selectivity, is 0.002 for the probe molecule.

[2] = test system: p-AMPK(Thr172) in C4-2 cells; assay: Western blot of p-AMPK(Thr172) in C4-2 prostate cancer cells; format: cell-based; details: 24 h treatment; for IC50: C4-2, 24 h, three individual experiments, read-out: IC50 for decrease of p-AMPK(Thr172) normalized to total AMPK
Experimental: C4-2 cells were plated in 6-well plates in IMEM medium containing 0.5% FBS. After 72 h, the cells were then treated with the compounds for 24 h before the media was aspirated and cells were washed twice in ice-cold PBS. Cells were lysed using RIPA buffer containing phosphatase and protease inhibitor cocktail while rotating for 30 min at 4 °C. In each lane, 30 μg/well of protein lysate was loaded into a 10% SDS-PAGE gel and run for 1 h and 30 min. Gels were then transferred overnight in a TRIS-glycine/methanol transfer buffer onto a PVDF membrane at 4 °C. Membranes were blocked, incubated with primary overnight at 4 °C, washed, incubated with secondary at room temperature for 1 h, washed, and then developed on an Azure Biosystems C-600 imager. Densitometry was performed using ImageJ. Total-AMPK was normalized to GAPDH and then p-AMPK was normalized to normalized total-AMPK. Normalized p-AMPK was used to calculate IC50 in GraphPad Prism 9.5.0. Primary antibodies used were from Cell Signaling (Danvers, MA, USA; Phospho-AMPKα (Thr172) (40H9) Rabbit mAb: Cat#: 2535; AMPKα (D5A2) Rabbit mAb Cat#: 5831), BD Bioscience (Franklin Lakes, NJ, USA; CAMKK2 mouse mAb Cat# 610544), and Sigma (St. Louis, MO, USA; GAPDH rabbit pAb: Cat# G9545). Secondary antibody (Goat Anti-Rabbit IgG (H + L)-HRP Conjugate; Cat#:1706515) was from Bio-Rad Laboratories (Hercules, CA, USA).
In this experiment, IC50 was calculated via quantifying changes in p-AMPK(Thr172) normalized to total AMPK levels.

[3] = test system: p-AMPK(Thr172) in MDA-MB-231 cells; assay: Immunoblot of p-AMPK(Thr172) in MDA-MB-231 breast cancer cells; format: cell-based; details: 24 h
Experimental: The cells were then washed three times with 2 mL of ice-cold PBS and lysed with 0.15 mL of phospho-RIPA lysis buffer (Tris-Cl pH 7.5, 50 mM; NaCl, 150 mM; NP-40, 1%; sodium deoxycholate, 0.5%; SDS, 0.05%; EDTA, 5 mM; sodium fluoride, 50 mM; sodium pyrophosphate, 15 mM; ß-glycerophosphate, 10 mM; sodium orthovanadate, 1 mM) with protease inhibitor cocktail (Millipore-Sigma, P-8340). Equal amounts of protein per sample/lane were denatured and resolved by SDS-PAGE. Proteins were transferred to Odyssey Nitrocellulose Membranes (LI-COR Biosciences, cat no: 926-31092), and quantitative immunoblotting was performed using the Odyssey infrared immunoblotting detection system (LI-COR Biosciences, Lincoln, NE, USA). Images were captured using the LI-COR Odyssey Classic scanner and processed using LI-COR Image Studio software, version 4.0. Quantification of the bands was done using Image Studio software tools whereby each individual immunoblot band was highlighted to obtain the signal intensity. The signal intensity of the pAMPK band was then divided by that of total AMPK and the data were normalized to the vehicle-only controls for each experiment. Primary antibodies used were anti-phospho AMPKα (Thr172) (Cell Signaling, cat no: 2535, dilution 1:1000); anti-AMPKα (Cell Signaling, cat.no: 2532, dil 1:500), and anti β-actin (Cat no: 3700, Cell signaling, dil 1:10,000). […]

CAMKK2 = CAMKK2 (Homo sapiens, UniProt Q96RR4); assay: CAMKK2 enzyme assay (radiolabeled phosphate transfer from [γ-32P]-ATP to CaMKKtide); format: biochemical; design: purified recombinant CAMKK2 (100 pM) was incubated in assay buffer; details: 200 μM ATP, 100 pM CAMKK2
Experimental: CAMKK2 activity was determined by measuring the transfer of radiolabeled phosphate from [γ-^32P]-ATP to a synthetic peptide substrate (CaMKKtide) as previously described. Briefly, purified recombinant CAMKK2 (100 pM) was incubated in assay buffer (50 mM HEPES [pH 7.4], 1 mM DTT, 0.02% [v/v] Brij-35) containing 200 μM CaMKKtide (Genscript), 100 μM CaCl2, 1 μM CaM (Sigma-Aldrich, Castle Hill, NSW, Australia), 200 μM [γ-^32P]-ATP (Perkin Elmer, Boston, MA, USA), 5 mM MgCl2 (Sigma-Aldrich, Castle Hill, NSW, Australia), and various concentrations of inhibitors (0–1 μM) in a standard 30 μL assay for 10 min at 30 °C. Reactions were terminated by spotting 15 μL onto P81 phosphocellulose paper (GE Lifesciences, Paramatta, NSW, Australia) and washing extensively in 1% phosphoric acid (Sigma-Aldrich, Castle Hill, NSW, Australia). Radioactivity was quantified by liquid scintillation counting.
A series of furo [2,3-b]pyridines were generated with modifications off the core at the 3- and 5-positions. They were profiled in the CAMKK2 enzyme assay we have described and utilized previously. Briefly, the enzyme assay measures the ability of the compound to inhibit the transfer of a radiolabeled phosphate from ATP to a CAMKK2-specific peptide. […] The S10 (1 µM), a calculated score that is reflective of broad kinome selectivity, is 0.002 for the probe molecule.

MUSK = molecular target: T1, MUSK (Homo sapiens, UniProt O15146); assay: KINOMEscan binding assay at 1 μM, MUSK; details: Compound Concentration 1000 nM; read-out: Percent Control
T1 construct: purchased Eurofins DiscoverX KINOMEscan
Source text: (§1) Supplement cells-12-00287-s001.zip/File S2. KinomeScan data for the CAMKK2 probe and negative control.xlsx, sheet "SGC-CAMKK2-1N" | column: Percent Control

PKAC-alpha = molecular target: T2, PKAC-alpha (Homo sapiens, UniProt P17612); assay: KINOMEscan binding assay at 1 μM, PKAC-alpha; details: Compound Concentration 1000 nM; read-out: Percent Control
T2 construct: purchased Eurofins DiscoverX KINOMEscan
Source text: as §1

T1 sequence (O15146 24-869): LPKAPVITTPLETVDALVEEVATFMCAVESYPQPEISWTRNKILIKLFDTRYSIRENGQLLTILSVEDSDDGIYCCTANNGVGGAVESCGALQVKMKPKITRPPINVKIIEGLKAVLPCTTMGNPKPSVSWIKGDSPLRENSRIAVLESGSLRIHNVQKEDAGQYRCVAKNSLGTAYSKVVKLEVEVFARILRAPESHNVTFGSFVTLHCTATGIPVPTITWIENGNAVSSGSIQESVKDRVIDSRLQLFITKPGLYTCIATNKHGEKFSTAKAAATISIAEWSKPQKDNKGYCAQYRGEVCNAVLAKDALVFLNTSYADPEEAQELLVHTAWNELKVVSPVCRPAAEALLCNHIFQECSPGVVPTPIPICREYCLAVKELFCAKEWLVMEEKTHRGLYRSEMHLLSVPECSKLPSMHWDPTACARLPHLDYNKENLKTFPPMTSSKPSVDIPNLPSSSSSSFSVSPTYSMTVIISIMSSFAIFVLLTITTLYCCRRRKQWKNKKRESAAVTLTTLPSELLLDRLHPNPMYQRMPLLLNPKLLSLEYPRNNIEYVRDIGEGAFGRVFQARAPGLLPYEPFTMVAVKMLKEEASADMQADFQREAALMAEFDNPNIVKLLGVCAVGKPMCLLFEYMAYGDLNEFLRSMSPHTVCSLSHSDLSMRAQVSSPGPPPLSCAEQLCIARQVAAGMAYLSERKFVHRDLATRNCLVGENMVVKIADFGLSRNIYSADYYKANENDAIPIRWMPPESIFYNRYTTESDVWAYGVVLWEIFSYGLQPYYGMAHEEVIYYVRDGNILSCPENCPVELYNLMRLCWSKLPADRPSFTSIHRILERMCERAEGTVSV

Compound	S10 (1 μM) [1]	IC50 [2]	blocking of AMPK phosphorylation (in words) ([3]; SGC-CAMKK2-1)	IC50 (CAMKK2)	activity on p-AMPK(Thr172) levels (in words) [2]	blocking of AMPK phosphorylation (in words) ([3]; negative control at 10 μM)	IC50 (CAMKK2; n = 1)	remaining binding at 1 µM (MUSK)	remaining binding at 1 µM (PKAC-alpha)
Cc1cccc(-c2cnc3occ(-c4ccc(C(=O)O)c(C5CCCC5)c4)c3c2)c1 [Compound 5]	0.002	1600 nM	more effective than STO-609; also recorded: higher efficacy than STO-609	30 nM					
O=C(O)c1ccc(-c2coc3ncc(-c4ccccc4)cc23)cc1Cl [Compound 7]	0.005	≥ 10000 nM			did not have any measurable activity	no effect	27000 nM		
O=C(O)c1ccc(-c2coc3ncc(-c4ccccc4)cc23)cc1Cl [SGC-CAMKK2-1N (UNC-YL-83)]								100%	100%
